Results published in patent publication US11065257B2, “Substituted pyrazoloazepin-4-ones and their use as phosphodiesterase inhibitors” (LEO Pharma A/S, priority 2016, dated 2021).

The compounds below were run against T1, human PDE4D catalytic domain (Homo sapiens, UniProt Q08499) (assay: PDE4 Assay). Settings: human PDE4D catalytic domain (S380-L740), TR-FRET with FAM-cAMP; expressed as a range of IC50; read-out: PDE4 Potency Range.
T1 construct: UniProt no; Q08499 [S380-L740]
Format: biochemical
How it was run: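 Catalytic domain (S380-L740) was incubated with unlabelled cAMP plus FAM-cAMP and titrated compound, then stopped with Tb-donor nanoparticles binding AMP phospho groups. Generated AMP was read by time-resolved FRET; IC50 was reported as 50% inhibition of substrate cleavage relative to controls, expressed as nM ranges.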

T1 sequence (Q08499 380-740): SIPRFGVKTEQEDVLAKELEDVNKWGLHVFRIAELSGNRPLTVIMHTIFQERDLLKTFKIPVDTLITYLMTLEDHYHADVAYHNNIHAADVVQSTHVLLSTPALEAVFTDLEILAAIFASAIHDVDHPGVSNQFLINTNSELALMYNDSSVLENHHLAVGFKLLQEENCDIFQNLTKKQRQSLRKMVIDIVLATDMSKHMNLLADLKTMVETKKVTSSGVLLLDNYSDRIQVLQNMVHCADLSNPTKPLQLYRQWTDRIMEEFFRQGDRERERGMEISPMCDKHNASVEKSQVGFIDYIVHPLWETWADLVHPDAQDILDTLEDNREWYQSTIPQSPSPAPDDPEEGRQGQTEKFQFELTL

Structure (SMILES)	IC50 [nM]
CCc1nn(CCCOC(=O)c2cnc(C)n2C)c2c1C(=O)NCC1(CCOCC1)C2 [Example 73, 3-(3-ethyl-4-oxo-spiro[6,8-dihydro-5H-pyrazolo[4,3-c]azepine-7,4′-tetrahydropyran]-1-yl)propyl 2,3-dimethylimidazole-4-carboxylate]	100 to 500
CCc1nn(CCCOC(=O)c2scnc2C)c2c1C(=O)NCC1(CCOCC1)C2 [Example 81, 3-(3-ethyl-4-oxo-spiro[6,8-dihydro-5H-pyrazolo[4,3-c]azepine-7,4′-tetrahydropyran]-1-yl)propyl 4-methylthiazole-5-carboxylate]	100 to 500
CCc1nn(CCCOC(=O)C2CN(C(C)=O)C2)c2c1C(=O)NCC1(CCOCC1)C2 [Example 77, 3-(3-ethyl-4-oxo-spiro[6,8-dihydro-5H-pyrazolo[4,3-c]azepine-7,4′-tetrahydropyran]-1-yl)propyl 1-acetylazetidine-3-carboxylate]	> 500
CCc1nn(CCOC(=O)c2cnn(C)c2)c2c1C(=O)NCC1(CCOCC1)C2 [Example 3, 2-(3-ethyl-4-oxo-spiro[6,8-dihydro-5H-pyrazolo[4,3-c]azepine-7,4′-tetrahydropyran]-1-yl)ethyl 1-methylpyrazole-4-carboxylate]	> 500
CCc1nn(CCCOC(=O)c2c(C)noc2C)c2c1C(=O)NCC1(CCOCC1)C2 [Example 75, 3-(3-ethyl-4-oxo-spiro[6,8-dihydro-5H-pyrazolo[4,3-c]azepine-7,4′-tetrahydropyran]-1-yl)propyl 3,5-dimethylisoxazole-4-carboxylate]	> 500
CCc1nn(CCCOC(=O)c2snnc2C)c2c1C(=O)NCC1(CCOCC1)C2 [Example 83, 3-(3-ethyl-4-oxo-spiro[6,8-dihydro-5H-pyrazolo[4,3-c]azepine-7,4′-tetrahydropyran]-1-yl)propyl 4-methylthiadiazole-5-carboxylate]	> 500
CCc1nn(CCCOC(=O)c2ccc(C)cn2)c2c1C(=O)NCC1(CCOCC1)C2 [Example 61, 3-(3-ethyl-4-oxo-spiro[6,8-dihydro-5H-pyrazolo[4,3-c]azepine-7,4′-tetrahydropyran]-1-yl)propyl 5-methylpyridine-2-carboxylate]	100 to 500
CCc1nn(CCCOC(=O)c2cnnn2C)c2c1C(=O)NCC1(CCOCC1)C2 [Example 49, 3-(3-ethyl-4-oxo-spiro[6,8-dihydro-5H-pyrazolo[4,3-c]azepine-7,4′-tetrahydropyran]-1-yl)propyl 3-methyltriazole-4-carboxylate]	100 to 500
CCc1nn(CCCOC(=O)c2cnc(C)[nH]2)c2c1C(=O)NCC1(CCOCC1)C2 [Example 36, 3-(3-ethyl-4-oxo-spiro[6,8-dihydro-5H-pyrazolo[4,3-c]azepine-7,4′-tetrahydropyran]-1-yl)propyl 2-methyl-1H-imidazole-4-carboxylate]	100 to 500
CCc1nn(CCCOC(=O)c2cnsc2C)c2c1C(=O)NCC1(CCOCC1)C2 [Example 79, 3-(3-ethyl-4-oxo-spiro[6,8-dihydro-5H-pyrazolo[4,3-c]azepine-7,4′-tetrahydropyran]-1-yl)propyl 5-methylisothiazole-4-carboxylate]	100 to 500
CCc1nn(CCCOC(=O)C2CCS(=O)(=O)C2)c2c1C(=O)NCC1(CCOCC1)C2 (stereo not shown) [Example 96, 3-(3-ethyl-4-oxo-spiro[6,8-dihydro-5H-pyrazolo[4,3-c]azepine-7,4′-tetrahydropyran]-1-yl)propyl 1,1-dioxothiolane-3-carboxylate]	> 500
CCc1nn(CC(C)(C)COC(=O)C2CCOCC2)c2c1C(=O)NCC1(CCOCC1)C2 [Example 111, [3-(3-ethyl-4-oxo-spiro[6,8-dihydro-5H-pyrazolo[4,3-c]azepine-7,4′-tetrahydropyran]-1-yl)-2,2-dimethyl-propyl] tetrahydropyran-4-carboxylate]	100 to 500
CCc1nn(CCCOC(=O)c2cnco2)c2c1C(=O)NCC1(CCOCC1)C2 [Example 24, 3-(3-ethyl-4-oxo-spiro[6,8-dihydro-5H-pyrazolo[4,3-c]azepine-7,4′-tetrahydropyran]-1-yl)propyl oxazole-5-carboxylate]	> 500
